Measured values reported in ChEMBL document CHEMBL1143443, “Discovery of (naphthalen-4-yl)(phenyl)methanones and N-methyl-N-phenylnaphthalen-1-amines as new apoptosis inducers using a cell- and caspase-based HTS assay” (Bioorg Med Chem Lett, 2008).
pEC50: −log10 of the molar value.

Key:
SNU-398 [1] = assay: Induction of apoptosis in human SNU398 cells assessed as caspase activation by HTS assay; assay type: functional, cell-based
T47D [2] = assay: Induction of apoptosis in human T47D cells assessed as caspase activation by HTS assay; assay type: functional, cell-based
HCT-116 [3] = assay: Induction of apoptosis in human HCT116 cells assessed as caspase activation by HTS assay; assay type: functional, cell-based
SNU-398 [4] = assay: Cytotoxicity against human SNU398 cells; assay type: functional
T47D [5] = assay: Cytotoxicity against human T47D cells; assay type: functional
HCT-116 [6] = assay: Cytotoxicity against human HCT116 cells; assay type: functional
HCT-116 [7] = assay: Cell cycle arrest in human HCT116 cells assessed as increase in G2/M phase population at 100 nM after 24 hrs by flow cytometry; assay type: functional
HCT-116 [8] = assay: Cell cycle arrest in human HCT116 cells assessed as increase in subG1 phase population at 100 nM after 24 hrs by flow cytometry; assay type: functional
HCT-116 [9] = assay: Cell cycle arrest in human HCT116 cells assessed as increase in subG1 phase population at 100 nM after 48 hrs by flow cytometry; assay type: functional

Row | SMILES | pEC50 (SNU-398 [1]) | pEC50 (T47D [2]) | pEC50 (HCT-116 [3]) | GI50 (SNU-398 [4]) [nM] | GI50 (T47D [5]) [nM] | GI50 (HCT-116 [6]) [nM] | Activity (HCT-116 [7]) [%] | Activity (HCT-116 [8]) [%] | Activity (HCT-116 [9]) [%]
1 | COc1ccc(C(=O)c2ccc(N(C)C)cc2)c2ccccc12 | 6.01 | 6.09 | 5.92 | – | – | – | – | – | –
2 | COc1cccc(N(C)c2ccc(N(C)C)c3ccccc23)c1 | 5.33 | 5.36 | 5.34 | – | – | – | – | – | –
3 | COc1ccc(N(C)c2ccc([N+](=O)[O-])c3ccccc23)cc1 | 6.48 | 6.62 | 6.55 | – | – | – | – | – | –
4 | COc1cc(OC)cc(C(=O)c2ccc(N(C)C)c3ccccc23)c1 | 5.82 | 5.89 | 5.72 | – | – | – | – | – | –
5 | COc1ccc(N(C)c2ccc(N)c3ccccc23)cc1 | 5.28 | 4.92 | 4.96 | – | – | – | – | – | –
6 | COc1cccc(C(=O)c2ccc(N(C)C)c3ccccc23)c1 | 5.46 | 5.59 | 5.29 | – | – | – | – | – | –
7 | COc1ccc(C(=O)c2ccc([N+](=O)[O-])cc2)c2ccccc12 | < 5.00 | < 5.00 | < 5.00 | – | – | – | – | – | –

Now from value to compound, other results behind:

Row | pEC50 (SNU-398 [1]) | pEC50 (T47D [2]) | pEC50 (HCT-116 [3]) | SMILES | GI50 (SNU-398 [4]) [nM] | GI50 (T47D [5]) [nM] | GI50 (HCT-116 [6]) [nM] | Activity (HCT-116 [7]) [%] | Activity (HCT-116 [8]) [%] | Activity (HCT-116 [9]) [%]
8 | 6.28 | 6.42 | 6.31 | CN(C)c1ccc(C(O)c2ccc(N(C)C)c3ccccc23)cc1 (stereo not given) | – | – | – | – | – | –
9 | 7.36 | 7.43 | 7.31 | CN(C)c1ccc(C(=O)c2ccc(N(C)C)c3ccccc23)cc1 | 27 | 34 | 68 | 12 | 4 | 53
10 | 6.77 | 6.85 | 6.59 | COc1ccc(C(O)c2ccc(N(C)C)c3ccccc23)cc1 (stereo not given) | 170 | 230 | 490 | – | – | –
11 | 6.14 | 6.29 | 6.21 | COc1ccc(N(C)c2ccc(N(C)C)c3ccccc23)cc1 | 150 | 260 | 320 | – | – | –
12 | 6.25 | 6.33 | 6.19 | COc1ccc(C(=O)c2ccc(N(C)C)c3ccccc23)cc1OC | – | – | – | – | – | –
13 | 6.24 | 6.38 | 5.92 | COc1cc(C(=O)c2ccc(N(C)C)c3ccccc23)cc(OC)c1OC | – | – | – | – | – | –
14 | 7.13 | 7.14 | 7.07 | COc1ccc(C(=O)c2ccc(N(C)C)c3ccccc23)cc1 | 27 | 39 | 100 | – | – | –
15 | 6.12 | 6.23 | 6.21 | COc1ccc(C(OC)c2ccc(N(C)C)c3ccccc23)cc1 (stereo not given) | – | – | – | – | – | –
